Test results reported in ChEMBL document CHEMBL5724806, “Unraveling interindividual differences and functional consequences of gut microbial metabolism of immunosuppressants” (2024).

Key:
Format in all cases: ADME
[1] = (§1) The drug is tested on Gemella morbillorum strain: DSM20572 for biotransformation under microaerobic condition. The drug concentrations were measured over 6 timepoints collected between 0 and 12 hours of incubation by liquid-chromatography-coupled mass spectrometry (LC–MS); design: dose 5 uM, timepoint 0, 1.5, 3, 6, 9, 12 hours; conditions: 5 µM
[2] = (§2) The drug is tested on Bacteroides fragilis strain: DSM2151 for biotransformation under anaerobic condition. The drug concentrations were measured over 6 timepoints collected between 0 and 12 hours of incubation by liquid-chromatography-coupled mass spectrometry (LC–MS); design: dose 5 uM, timepoint 0, 1.5, 3, 6, 9, 12 hours; conditions: 5 µM
[3] = The drug is tested on Capnocytophaga ochracea strain: DSM7271 for biotransformation under anaerobic condition. The drug concentrations were measured over 6 timepoints collected between 0 and 12 hours of incubation by liquid-chromatography-coupled mass spectrometry (LC–MS); design: dose 5 uM, timepoint 0, 1.5, 3, 6, 9, 12 hours; conditions: 5 µM
[4] = The drug is tested on Bacteroides ovatus strain: ATCC 8483 for biotransformation under anaerobic condition. The drug concentrations were measured over 6 timepoints collected between 0 and 12 hours of incubation by liquid-chromatography-coupled mass spectrometry (LC–MS); design: dose 5 uM, timepoint 0, 1.5, 3, 6, 9, 12 hours; conditions: 5 µM
[5] = The drug is tested on Streptococcus anginosus strain: DSM20563 for biotransformation under microaerobic condition. The drug concentrations were measured over 6 timepoints collected between 0 and 12 hours of incubation by liquid-chromatography-coupled mass spectrometry (LC–MS); design: dose 5 uM, timepoint 0, 1.5, 3, 6, 9, 12 hours; conditions: 5 µM
[6] = The drug is tested on Bacteroides uniformis strain: DSM6597 for biotransformation under anaerobic condition. The drug concentrations were measured over 6 timepoints collected between 0 and 12 hours of incubation by liquid-chromatography-coupled mass spectrometry (LC–MS); design: dose 5 uM, timepoint 0, 1.5, 3, 6, 9, 12 hours; conditions: 5 µM
[7] = as §1, with “the gut metagenome community of T-04 with ENA study accession number: PRJEB31790” for “Gemella morbillorum strain: DSM20572”, “7” for “6”; design: dose 5 uM, timepoint 0, 0.75, 1.5, 3, 6, 9, 12 hours; conditions: 5 µM
[8] = as §2, with “the gut metagenome community of A-07 with ENA study accession number: PRJEB31790” for “Bacteroides fragilis strain: DSM2151”, “7” for “6”; design: dose 5 uM, timepoint 0, 0.75, 1.5, 3, 6, 9, 12 hours; conditions: 5 µM
[9] = The drug is tested on Bifidobacterium longum strain: DSM20088 for biotransformation under microaerobic condition. The drug concentrations were measured over 6 timepoints collected between 0 and 12 hours of incubation by liquid-chromatography-coupled mass spectrometry (LC–MS); design: dose 5 uM, timepoint 0, 1.5, 3, 6, 9, 12 hours; conditions: 5 µM
[10] = The drug is tested on Bacteroides thetaiotaomicron strain: DSM2079 for biotransformation under anaerobic condition. The drug concentrations were measured over 6 timepoints collected between 0 and 12 hours of incubation by liquid-chromatography-coupled mass spectrometry (LC–MS); design: dose 5 uM, timepoint 0, 1.5, 3, 6, 9, 12 hours; conditions: 5 µM
[11] = The drug is tested on Streptococcus mitis strain: DSM12643 for biotransformation under microaerobic condition. The drug concentrations were measured over 6 timepoints collected between 0 and 12 hours of incubation by liquid-chromatography-coupled mass spectrometry (LC–MS); design: dose 5 uM, timepoint 0, 1.5, 3, 6, 9, 12 hours; conditions: 5 µM
[12] = The drug is tested on Lactobacillus gasseri strain: DSM20243 for biotransformation under microaerobic condition. The drug concentrations were measured over 6 timepoints collected between 0 and 12 hours of incubation by liquid-chromatography-coupled mass spectrometry (LC–MS); design: dose 5 uM, timepoint 0, 1.5, 3, 6, 9, 12 hours; conditions: 5 µM
[13] = as §2, with “the gut metagenome community of A-03 with ENA study accession number: PRJEB31790” for “Bacteroides fragilis strain: DSM2151”, “7” for “6”; design: dose 5 uM, timepoint 0, 0.75, 1.5, 3, 6, 9, 12 hours; conditions: 5 µM
[14] = as §2, with “the gut metagenome community of P-03 with ENA study accession number: PRJEB31790” for “Bacteroides fragilis strain: DSM2151”, “7” for “6”; design: dose 5 uM, timepoint 0, 0.75, 1.5, 3, 6, 9, 12 hours; conditions: 5 µM
[15] = The drug is tested on Lactobacillus reuteri strain: DSM20016 for biotransformation under anaerobic condition. The drug concentrations were measured over 6 timepoints collected between 0 and 12 hours of incubation by liquid-chromatography-coupled mass spectrometry (LC–MS); design: dose 5 uM, timepoint 0, 1.5, 3, 6, 9, 12 hours; conditions: limosilactobacillus reuteri, 5 µM
[16] = The drug is tested on Lactobacillus paracasei strain: ATCC27092 for biotransformation under anaerobic condition. The drug concentrations were measured over 6 timepoints collected between 0 and 12 hours of incubation by liquid-chromatography-coupled mass spectrometry (LC–MS); design: dose 5 uM, timepoint 0, 1.5, 3, 6, 9, 12 hours; conditions: lacticaseibacillus paracasei, 5 µM
[17] = The drug is tested on Bacteroides vulgatus strain: DSM1447 for biotransformation under anaerobic condition. The drug concentrations were measured over 6 timepoints collected between 0 and 12 hours of incubation by liquid-chromatography-coupled mass spectrometry (LC–MS); design: dose 5 uM, timepoint 0, 1.5, 3, 6, 9, 12 hours; conditions: phocaeicola vulgatus, 5 µM
[18] = as §1, with “the gut metagenome community of T-02 with ENA study accession number: PRJEB31790” for “Gemella morbillorum strain: DSM20572”, “7” for “6”; design: dose 5 uM, timepoint 0, 0.75, 1.5, 3, 6, 9, 12 hours; conditions: 5 µM
[19] = as §2, with “the gut metagenome community of A-02 with ENA study accession number: PRJEB31790” for “Bacteroides fragilis strain: DSM2151”, “7” for “6”; design: dose 5 uM, timepoint 0, 0.75, 1.5, 3, 6, 9, 12 hours; conditions: 5 µM
[20] = as §1, with “the gut metagenome community of A-01 with ENA study accession number: PRJEB31790” for “Gemella morbillorum strain: DSM20572”, “7” for “6”; design: dose 5 uM, timepoint 0, 0.75, 1.5, 3, 6, 9, 12 hours; conditions: 5 µM
[21] = as §2, with “the gut metagenome community of T-05 with ENA study accession number: PRJEB31790” for “Bacteroides fragilis strain: DSM2151”, “7” for “6”; design: dose 5 uM, timepoint 0, 0.75, 1.5, 3, 6, 9, 12 hours; conditions: 5 µM
[22] = as §1, with “the gut metagenome community of A-09 with ENA study accession number: PRJEB31790” for “Gemella morbillorum strain: DSM20572”, “7” for “6”; design: dose 5 uM, timepoint 0, 0.75, 1.5, 3, 6, 9, 12 hours; conditions: 5 µM
[23] = The drug is tested on Lactobacillus ruminis strain: ATCC25644 for biotransformation under anaerobic condition. The drug concentrations were measured over 6 timepoints collected between 0 and 12 hours of incubation by liquid-chromatography-coupled mass spectrometry (LC–MS); design: dose 5 uM, timepoint 0, 1.5, 3, 6, 9, 12 hours; conditions: ligilactobacillus ruminis, 5 µM
[24] = The drug is tested on Eubacterium rectale strain: DSM17629 for biotransformation under anaerobic condition. The drug concentrations were measured over 6 timepoints collected between 0 and 12 hours of incubation by liquid-chromatography-coupled mass spectrometry (LC–MS); design: dose 5 uM, timepoint 0, 1.5, 3, 6, 9, 12 hours; conditions: agathobacter rectalis, 5 µM
[25] = as §1, with “the gut metagenome community of T-03 with ENA study accession number: PRJEB31790” for “Gemella morbillorum strain: DSM20572”, “7” for “6”; design: dose 5 uM, timepoint 0, 0.75, 1.5, 3, 6, 9, 12 hours; conditions: 5 µM
[26] = as §2, with “the gut metagenome community of P-04 with ENA study accession number: PRJEB31790” for “Bacteroides fragilis strain: DSM2151”, “7” for “6”; design: dose 5 uM, timepoint 0, 0.75, 1.5, 3, 6, 9, 12 hours; conditions: 5 µM
[27] = The drug is tested on Streptococcus salivarius strain: DSM20560 for biotransformation under microaerobic condition. The drug concentrations were measured over 6 timepoints collected between 0 and 12 hours of incubation by liquid-chromatography-coupled mass spectrometry (LC–MS); design: dose 5 uM, timepoint 0, 1.5, 3, 6, 9, 12 hours; conditions: 5 µM
[28] = The drug is tested on Faecalibacterium prausnitzii strain: DSM17677 for biotransformation under anaerobic condition. The drug concentrations were measured over 6 timepoints collected between 0 and 12 hours of incubation by liquid-chromatography-coupled mass spectrometry (LC–MS); design: dose 5 uM, timepoint 0, 1.5, 3, 6, 9, 12 hours; conditions: faecalibacterium duncaniae, 5 µM
[29] = The drug is tested on Streptococcus anginosus strain: DSM20563 for biotransformation under anaerobic condition. The drug concentrations were measured over 6 timepoints collected between 0 and 12 hours of incubation by liquid-chromatography-coupled mass spectrometry (LC–MS); design: dose 5 uM, timepoint 0, 1.5, 3, 6, 9, 12 hours; conditions: 5 µM
[30] = The drug is tested on Parabacteroides distasonis strain: DSM20701 for biotransformation under anaerobic condition. The drug concentrations were measured over 6 timepoints collected between 0 and 12 hours of incubation by liquid-chromatography-coupled mass spectrometry (LC–MS); design: dose 5 uM, timepoint 0, 1.5, 3, 6, 9, 12 hours; conditions: 5 µM

| SMILES | Bacterial Biotransformation [1] | Bacterial Biotransformation [2] | Bacterial Biotransformation [3] | Bacterial Biotransformation [4] | Bacterial Biotransformation [5] | Bacterial Biotransformation [6] | Bacterial Biotransformation [7] | Bacterial Biotransformation [8] | Bacterial Biotransformation [9] | Bacterial Biotransformation [10] | Bacterial Biotransformation [11] | Bacterial Biotransformation [12] | Bacterial Biotransformation [13] | Bacterial Biotransformation [14] | Bacterial Biotransformation [15] | Bacterial Biotransformation [16] | Bacterial Biotransformation [17] | Bacterial Biotransformation [18] | Bacterial Biotransformation [19] | Bacterial Biotransformation [20] | other results |
| --- | --- | --- | --- | --- | --- | --- | --- | --- | --- | --- | --- | --- | --- | --- | --- | --- | --- | --- | --- | --- | --- |
| NS(=O)(=O)c1cc(C(=O)O)c(NCc2ccco2)cc1Cl [FUROSEMIDE] | Compound NOT metabolized | Compound NOT metabolized | Compound NOT metabolized | Compound NOT metabolized | Compound NOT metabolized | Compound NOT metabolized | Compound NOT metabolized | Compound NOT metabolized | Compound NOT metabolized | Compound NOT metabolized | Compound NOT metabolized | Compound NOT metabolized | Compound NOT metabolized | Compound NOT metabolized | Compound NOT metabolized | Compound NOT metabolized | Compound NOT metabolized | Compound NOT metabolized | Compound NOT metabolized | Compound NOT metabolized | Bacterial Biotransformation [21]: Compound NOT metabolized; Bacterial Biotransformation [22]: Compound NOT metabolized; Bacterial Biotransformation [23]: Compound NOT metabolized; Bacterial Biotransformation [24]: Compound NOT metabolized; Bacterial Biotransformation [25]: Compound NOT metabolized; Bacterial Biotransformation [26]: Compound NOT metabolized; Bacterial Biotransformation [27]: Compound NOT metabolized; Bacterial Biotransformation [28]: Compound NOT metabolized; Bacterial Biotransformation [29]: Compound NOT metabolized; Bacterial Biotransformation [30]: Compound NOT metabolized |
| C[C@]12CCC(=O)C=C1CC[C@@H]1[C@@H]2[C@@H](O)C[C@@]2(C)[C@H]1CC[C@]2(O)C(=O)CO [HYDROCORTISONE] | Compound NOT metabolized | Compound NOT metabolized | Compound NOT metabolized | Compound NOT metabolized | Compound NOT metabolized | Compound NOT metabolized | Compound NOT metabolized | Compound metabolized | Compound NOT metabolized | Compound NOT metabolized | Compound NOT metabolized | Compound NOT metabolized | Compound metabolized | Compound metabolized | Compound NOT metabolized | Compound NOT metabolized | Compound NOT metabolized | Compound metabolized | Compound metabolized | Compound metabolized | Bacterial Biotransformation [21]: Compound metabolized; Bacterial Biotransformation [22]: Compound metabolized; Bacterial Biotransformation [23]: Compound NOT metabolized; Bacterial Biotransformation [24]: Compound NOT metabolized; Bacterial Biotransformation [25]: Compound NOT metabolized; Bacterial Biotransformation [26]: Compound metabolized; Bacterial Biotransformation [27]: Compound metabolized; Bacterial Biotransformation [28]: Compound NOT metabolized; Bacterial Biotransformation [29]: Compound NOT metabolized; Bacterial Biotransformation [30]: Compound NOT metabolized |
| CN(Cc1cnc2nc(N)nc(N)c2n1)c1ccc(C(=O)N[C@@H](CCC(=O)O)C(=O)O)cc1 [METHOTREXATE] | Compound NOT metabolized | Compound NOT metabolized | Compound NOT metabolized | Compound NOT metabolized | Compound NOT metabolized | Compound NOT metabolized | Compound NOT metabolized | Compound metabolized | Compound NOT metabolized | Compound NOT metabolized | Compound NOT metabolized | Compound NOT metabolized | Compound metabolized | Compound metabolized | Compound NOT metabolized | Compound NOT metabolized | Compound NOT metabolized | Compound metabolized | Compound metabolized | Compound NOT metabolized | Bacterial Biotransformation [21]: Compound metabolized; Bacterial Biotransformation [22]: Compound metabolized; Bacterial Biotransformation [23]: Compound NOT metabolized; Bacterial Biotransformation [24]: Compound NOT metabolized; Bacterial Biotransformation [25]: Compound NOT metabolized; Bacterial Biotransformation [26]: Compound NOT metabolized; Bacterial Biotransformation [27]: Compound NOT metabolized; Bacterial Biotransformation [28]: Compound NOT metabolized; Bacterial Biotransformation [29]: Compound NOT metabolized; Bacterial Biotransformation [30]: Compound NOT metabolized |
